Consider 27 compounds from ChEMBL document CHEMBL1143355, “Aryl sulphonyl amides as potent agonists of the growth hormone secretagogue (ghrelin) receptor” (Bioorg Med Chem Lett, 2009).

Data set [1] concerns the target Growth hormone secretagogue receptor type 1 (Homo sapiens, UniProt Q92847). The experiment in a line: Agonist activity at human ghrelin receptor by cell based BACMAM FLIPR assay. In kind it is functional.
Data set [2] in a line: Half life in Sprague-Dawley rat at 1 mg/kg, iv. In kind it is ADME, organism-based. Particulars: in vivo. On the set-up: dose 1 mg/kg, route intravenous.
The next data set has as its system Rattus norvegicus. Kind of data set: AUC (0 to 6 hrs) in Sprague-Dawley rat at 3 mg/kg, po. To be noted: in vivo. In kind it is ADME, organism-based, Plasma. Details: time < 6 hr, dose 3 mg/kg, route oral.
The nature of data set [3]: Cmax in Sprague-Dawley rat at 3 mg/kg, po. In kind it is ADME, organism-based. Details: dose 3 mg/kg, route oral. Particulars: in vivo.
A short description of data set [4]: Volume of distribution at steady state in Sprague-Dawley rat at 1 mg/kg, iv. The class given is ADME, organism-based. On the set-up: dose 1 mg/kg, route intravenous. To be noted: in vivo, read-out: Vdss.
A short description of data set [5]: Tmax in Sprague-Dawley rat at 3 mg/kg, po. In kind it is ADME, organism-based. On the set-up: dose 3 mg/kg, route oral. To be noted: in vivo.
The nature of data set [6]: Mean residence time in Sprague-Dawley rat at 1 mg/kg, iv. The class given is ADME, organism-based. Details: dose 1 mg/kg, route intravenous. To be noted: in vivo.
Data set [7] in a line: Cmax in Sprague-Dawley rat at 1 mg/kg, iv. In kind it is ADME, organism-based. Details: dose 1 mg/kg, route intravenous. To be noted: in vivo.
Data set [8] is described as follows: Total body clearance in Sprague-Dawley rat at 1 mg/kg, iv. In kind it is ADME, organism-based. Details: dose 1 mg/kg, route intravenous. Particulars: in vivo.

Usually EC50 stands for the concentration giving half of the maximal effect. A low value points to greater potency. The term half-life denotes how long it takes for the measured level to halve. High values mean slow loss, low ones fast loss. Broadly, the Cmax is the peak of the concentration-time curve. Usually Tmax stands for the time at which the peak concentration occurs. The MRT is a mean duration of stay, worked out from the concentration-time curve. What is called clearance is a measure of how efficiently the substance is removed, as volume per time. Low values mean a low capacity for elimination, high ones a high capacity for elimination.

Growth hormone secretagogue receptor type 1, sequence (Q92847 whole entry): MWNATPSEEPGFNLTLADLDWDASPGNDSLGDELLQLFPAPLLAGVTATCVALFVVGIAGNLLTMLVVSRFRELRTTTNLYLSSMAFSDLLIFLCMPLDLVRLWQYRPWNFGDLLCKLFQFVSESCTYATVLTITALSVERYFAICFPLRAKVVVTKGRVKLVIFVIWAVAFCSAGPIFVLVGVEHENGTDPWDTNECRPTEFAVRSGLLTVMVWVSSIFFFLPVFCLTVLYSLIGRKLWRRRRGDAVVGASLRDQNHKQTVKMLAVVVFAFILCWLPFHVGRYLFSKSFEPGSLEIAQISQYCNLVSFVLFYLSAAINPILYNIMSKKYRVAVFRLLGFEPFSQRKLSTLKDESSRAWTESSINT

The compound `N[C@H]1CCN(C(=O)[C@H]2CCCCN2S(=O)(=O)c2ccc(-c3ccccc3)cc2)C1` gave an EC50 in data set [1] above 5010 nM.
As to `N[C@H]1CCN(C(=O)[C@@H]2CCCCN2S(=O)(=O)c2ccc(-c3cccnc3)cc2)C1`, in data set [1], the half-maximal effective concentration (EC50) was 316 nM.
Turning to `Cc1ccc(-c2ccc(S(=O)(=O)N3C[C@H](O)C[C@H]3C(=O)N3CC[C@@H](N)C3)cc2F)o1`, the half-maximal effective concentration (EC50) in [1] is 0.501 nM.
On the same count and under the same terms, next, `Cc1ccc(-c2ccc(S(=O)(=O)N3CCCC[C@H]3C(=O)N3C[C@@H](C)N[C@@H](C)C3)cc2F)o1`: 2.51 nM; `Cc1ccc(-c2ccc(S(=O)(=O)N3CCCC[C@H]3C(=O)N3CC[C@@H](N)C3)cc2F)o1`: 0.0501 nM; `Cc1ccc(-c2ccc(S(=O)(=O)N3CCCC[C@H]3C(=O)N3CC[C@H](N)C3)cc2F)o1`: 0.158 nM.
The same measure, in the same setting: next, `Cc1ccc(-c2ccc(S(=O)(=O)N3CC[C@H]3C(=O)N3CC[C@@H](N)C3)cc2F)o1`: 15.8 nM.
On the same count and under the same terms, next, `N[C@H]1CCN(C(=O)[C@@H]2CCCCN2S(=O)(=O)c2ccc(-c3ccccc3)cc2)C1`: 7.94 nM.
With `N[C@@H]1CCN(C(=O)[C@@H]2CCCCN2S(=O)(=O)c2ccc(-c3ccccc3)cc2)C1`, a half-maximal response in [1] (EC50) required 15.8 nM.
In turn, `N[C@@H]1CCN(C(=O)[C@@H]2CCCCN2S(=O)(=O)c2ccc(-c3ccco3)cc2)C1` had an EC50 in data set [1] of 31.6 nM.
In turn, `N[C@H]1CCN(C(=O)[C@@H]2CCCCN2S(=O)(=O)c2ccc(NC(=O)c3ccccc3)cc2)C1` gave an EC50 in data set [1] of 20 nM.
The same measure, in the same setting: next, `COc1cccc(C(=O)Nc2ccc(S(=O)(=O)N3CCCC[C@H]3C(=O)N3CC[C@H](N)C3)cc2)c1`: 2 nM; `Cc1ccc(-c2ccc(S(=O)(=O)N3CCCC[C@H]3C(=O)N3CC[C@@H](N)C3)cc2)o1`: 0.251 nM.
Same read-out and setting: next, `N[C@@H]1CCN(C(=O)[C@H]2CCCCN2S(=O)(=O)c2ccc(-c3ccccc3)cc2)C1`: above 5010 nM.
Still for that read-out and setting: next, `CNC1CCN(C(=O)[C@@H]2CCCCN2S(=O)(=O)c2ccc(-c3ccc(C)o3)cc2)C1` (stereo not given in full): 10 nM.
In [1], `Cc1ccc(-c2ccc(S(=O)(=O)N3CCCC[C@H]3C(=O)N3CCCNCC3)cc2)o1` had an EC50 of 7.94 nM.
On the same count and under the same terms, next, `N[C@@H]1CCN(C(=O)[C@@H]2CCCCN2S(=O)(=O)c2ccc(-c3cc(Cl)ccc3Cl)cc2)C1`: 0.316 nM; `Cc1ccc(-c2ccc(S(=O)(=O)N3CCNC[C@H]3C(=O)N3CC[C@@H](N)C3)cc2)o1`: 1.26 nM.
In the case of `NC1CCN(C(=O)C2CCCCN2S(=O)(=O)c2ccc(-c3ccccc3)cc2)C1` (stereo not given), in data set [1], the half-maximal effective concentration (EC50) was 31.6 nM.
For `Cc1ccc(-c2ccc(S(=O)(=O)N3C[C@@H](O)C[C@H]3C(=O)N3CC[C@@H](N)C3)cc2F)o1`, the EC50 in data set [1] is 5.01 nM.
`N[C@@H]1CCN(C(=O)[C@@H]2CCCCN2S(=O)(=O)c2ccc(-c3cc(F)ccc3F)cc2)C1` had an EC50 in [1] of 1 nM.
On the same count and under the same terms, next, `Cc1ccc(-c2ccc(S(=O)(=O)N3CC[C@H](O)[C@H]3C(=O)N3CC[C@@H](N)C3)cc2F)o1`: 0.2 nM.
Same read-out and setting: next, `N[C@H]1CCN(C(=O)[C@@H]2CCCCN2S(=O)(=O)c2ccc(NC(=O)c3ccccc3F)cc2)C1`: 3.98 nM.
The compound `Cc1ccc(-c2ccc(S(=O)(=O)N3CCC[C@H]3C(=O)N3CC[C@@H](N)C3)cc2F)o1` gave a half-life in data set [2] of 2.4 h. In the data set on Rattus norvegicus, this compound yielded an AUC of 5 kg·min/L. Moreover, the peak concentration (Cmax) in [3] turned out to be 151 nM; in data set [7] it was 762 nM. In addition, the Vd in data set [4] was 3.5 L/kg. Besides, the time of peak concentration (Tmax) in data set [5] stood at 4 h. In data set [6], this compound returned an MRT of 2.4 h. A half-maximal response in data set [1] (EC50) required 0.398 nM. In data set [8], this compound returned a clearance of 25 mL/min/kg.
`N[C@@H]1CCN(C(=O)[C@@H]2CCCCN2S(=O)(=O)c2ccc(-c3ccco3)c(F)c2)C1` gave an EC50 in data set [1] of 3.16 nM.
Still for that read-out and setting: next, `N[C@@H]1CCN(C(=O)[C@@H]2CCCCN2S(=O)(=O)c2ccc(Br)cc2)C1`: 398 nM.
On the same count and under the same terms, next, `Cc1ccc(-c2ccc(S(=O)(=O)N3CCCC[C@H]3C(=O)N3C[C@@H](C)N[C@@H](C)C3)cc2)o1`: 6.31 nM.
